According to patent US7279502B2, “Polyamine analog conjugates and quinone conjugates as therapies for cancers and prostate diseases” (Cellgate, Inc., priority 1999, dated 2007):
Read-outs that look alike come from different tables or passages of the source.

Columns and labels:
Type in all cases: cell-based
[1] = test system: human prostate adenocarcinoma cell line PC-3; assay: MTT assay, quinones, PC-3; conditions: Table 3, treatment time not given in cell, read-out: ID50 PC-3
Protocol: (§1) Cell Culture: The human lung adenocarcinoma cell line, A549, and human prostatic cancer cell line, DUPRO, were a gift from Dr. M. Eileen Dolan, University of Chicago, Department of Medicine. A549 was grown in Ham's F-12K medium (Fisher Scientific, Itasca, Ill.) supplemented with 10% fetal bovine serum and 2 mM L-glutamine. DUPRO was grown in RPMI-1640 supplemented with 10% fetal bovine serum. The human colon carcinoma cell line, HT29, and the human breast carcinoma cell line, MCF7, were obtained from the American Type Culture Collection, Rockville, Md. HT29 cells were grown in McCoy's 5A medium (Gibco, BRL, Gaithersburg, Md.) supplemented with 10% fetal bovine serum. MCF7 cells were grown in Richter's Improved Modified Eagle's medium supplemented with 10% fetal bovine serum and 2.2 g/L sodium bicarbonate. The human prostate adenocarcinoma cell lines, LNCAP, PC-3 and DU145, were gifts from Dr. George Wilding, University of Wisconsin Comprehensive Cancer Center and the Department of Medicine, and were grown in Dulbecco's Modified Eagle's medium supplemented with a 5% fetal bovine serum. The malignant glioma cell line, U251MG NCI was obtained from the brain tumor tissue bank at the University of California, San Francisco Department of Neurosurgery, and was grown in Dulbecco's Modified Eagle's medium supplemented wth 10% fetal bovine serum. DUPRO, A549 and MCF7 cells were grown in 100 units/mL penicillin and 100 μg/mL streptomycin. HT29 and U251MG NCI cells were grown in 50 μg/mL gentamycin. LNCAP, PC-3 and DU145 cells were maintained in 1% antibiotic antimycotic solution (Sigma, St. Louis, Mo.). All cell cultures were maintained at 37° C. in 5% CO2/95% humidified air.
(§2) MTT assay. Exponentially growing monolayer cells were plated in 96 well plates at a density of 500 cells/well and allowed to grow for 24 h. Serially diluted drug solutions were added such that the final drug concentrations in the treatment media were between 0 and 35 μM. Cells were incubated with drug at either 4 hr or 72 hr. After 4 hr and 72 hr treatment, drugs were removed, fresh media (without) drug (100 uL) was added and cells were incubated for 6 days. After six days, 25 μL of a Dulbecco's phosphate-buffered saline solution containing 5 mg/mL of MTT (Thiazolyl blue) (Sigma) was added to each well and incubated for 4 h at 37° C. Then 100 μL of lysis buffer (20% sodium dodecyl sulfate, 50% N,N-dimethylformamide and 0.8% acetic acid, pH 4.7) was added to each well and incubated for an additional 22 h. A microplate reader (E max, Molecular Devices, Sunnyvale, Calif.) set at 570 nm was used to determine the optical density. Results were plotted as a ratio of the optical density in drug treated wells to the optical density in wells treated with vehicle alone. Plotting and estimation of ID50 values were accomplished with manufacturer supplied software. The data is presented below in Tables 3, 4, 5 and 6.

[2] = test system: human breast carcinoma cell line, MCF7; assay: MTT assay, quinones, MCF7; conditions: Table 4, treatment time not given in cell, read-out: ID50 Breast MCF7
Protocol: as §1, §2

[3] = test system: human prostate cancer cells PC3; assay: MTT assay, polyamine analogs, PC3; conditions: for EC50: PC-3, survival of cultured PC3 cells, figure legends, read-out: ED50 (the source's name)
Protocol: (§3) Human breast cancer cell line MCF7 was grown in Richter's Improved Modified Eagle's Medium supplemented with 10% fetal bovine serum (FBS) and 2.2 g/L sodium bicarbonate. Human brain tumor cell line U251 MG-NCI was grown in Dulbecco's Modified Eagle's Medium supplemented with 10% FBS. Human lung cancer cell line A549 was grown in Ham's F-12K medium (Cellgro, Mediatech, Inc., VA), supplemented with 10% FBS and 2 mM L-glutamine. Human colon cancer cell line HT29 was cultured in McCoy's 5A medium (Gibco, BRL, Gaithersburg, Md.) supplemented with 10% FBS. Human prostate cancer cell lines PC-3, LNCAP and DuPro were grown in RPMI 1640 Medium (Cellgro, Mediatech, Inc., VA) supplemented with 10% FBS. Another human prostate cancer cell line DU145 was grown in Dulbecco's Modified Eagle's Medium (Gibco, BRL, Gaithersburg, Md.) supplemented with 5% FBS. The A549, MCF7, PC3, LNCAP and DuPro cell lines were cultured in 100 units/mL penicillin and 100 μg/mL streptomycin. HT29 and U251MG cell lines were grown in 50 μg/mL gentamycin (Gibco, BRL, Gaithersburg, Md.). DU145 cell line was maintained in 1% antibitic-antimycotic solution (Sigma, St. Louis, Mo.). The cell cultures were maintained at 37° C. in 5% CO2/95% humidified air. DuPro cells were obtained from M. Eileen Dolan, University of Chicago. All other cells are available from the American Type Culture Collection, Rockville, Md.
(§4) A conventional MTT assay was used to evaluate percent cell survival. Exponentially growing monolayer cells were plated in 96-well plates at a density of 500 cells per well and allowed to grow for 24 hours. Serial dilutions of the drugs were added to the wells. Six days after drug treatment, 25 μl of MTT solution (5 mg/ml) was added to each well and incubated for 4 hours at 37° C. Then 100 μl of lysis buffer (20% sodium dodecyl sulfate, 50% DMF, and 0.8% acetic acid, pH 4.7) was added to each well and incubated for an additional 22 hours. A microplate reader (“EMAX”-brand, Molecular Devices, Sunnyvale, Calif.) set at 570 nm was used to determine the optical density of the cultures. Results are expressed as a ratio of the optical density in drug-treated wells to the optical density in wells treated with vehicle only.

[4] = test system: human prostate cancer cells DU145; assay: MTT assay, polyamine analogs, DU145; conditions: for EC50: figure legends, read-out: ED50 (the source's name); for IC50: DU-145, 144 h, read-out: concentration needed for 50% growth inhibition (ID50) DU-145, Table 2, MTT six days after drug treatment
Protocol: as §3, §4

[5] = test system: human prostate cancer cells LNCAP; assay: MTT assay, polyamine analogs, LNCAP; conditions: survival of cultured LNCAP cells, figure legends, read-out: ED50 (the source's name)
Protocol: as §3
A conventional MTT assay was used to evaluate percent cell survival. Exponentially growing monolayer cells were plated in 96-well plates at a density of 500 cells per well and allowed to grow for 24 hours. Serial dilutions of the drugs were added to the wells. Six days after drug treatment, 25 μl of MTT solution (5 mg/ml) was added to each well and incubated for 4 hours at 37° C. […] A microplate reader (“EMAX”-brand, Molecular Devices, Sunnyvale, Calif.) set at 570 nm was used to determine the optical density of the cultures. Results are expressed as a ratio of the optical density in drug-treated wells to the optical density in wells treated with vehicle only.

[6] = test system: human colon cancer cells HT29; assay: MTT assay, polyamine analogs, HT29; conditions: for EC50: HT-29, survival of cultured HT29 cells, figure legends, read-out: ED50 (the source's name); for IC50: HT-29, 144 h, read-out: concentration needed for 50% growth inhibition (ID50) HT-29, Table 2, MTT six days after drug treatment
Protocol: (§5) As shown in Table 2 and FIGS. 1-32, several novel conformationally restricted polyamine analogs were tested for anti-proliferative properties against cancer cells.
as §3, §4

[7] = test system: human lung cancer cells A549; assay: MTT assay, polyamine analogs, A549; conditions: for EC50: A549, survival of cultured A549 cells, figure legends, read-out: ED50 (the source's name)
Protocol: as §5, §3, §4

[8] = test system: human brain tumor cells U251 MG NCI; assay: MTT assay, polyamine analogs, U251 MG NCI; conditions: for EC50: U-251, survival of cultured U251 MG NCI cells, figure legends, read-out: ED50 (the source's name); for IC50: U-251, 144 h, read-out: concentration needed for 50% growth inhibition (ID50) U251MG, Table 2, MTT six days after drug treatment
Protocol: as §3, §4

[9] = test system: human breast cancer cells MCF7; assay: MTT assay, polyamine analogs, MCF7; conditions: for IC50: MCF7, 144 h, read-out: concentration needed for 50% growth inhibition (ID50) MCF7, Table 2, MTT six days after drug treatment; for EC50: MCF7, survival of cultured MCF7 cells, figure legends, read-out: ED50 (the source's name)
Protocol: as §5, §3, §4

[10] = test system: human prostate cancer cells DUPRO; assay: MTT assay, polyamine analogs, DUPRO; conditions: for IC50: 144 h, read-out: concentration needed for 50% growth inhibition (ID50) DUPRO, Table 2, MTT six days after drug treatment; for EC50: survival of cultured DUPRO cells, figure legends, read-out: ED50 (the source's name)
Protocol: as §3, §4

[11] = Homo sapiens, DU-145, survival of cultured DU145 cells
[12] = Homo sapiens, A549, 144 h, read-out: concentration needed for 50% growth inhibition (ID50) A549, Table 2, MTT six days after drug treatment
[13] = read-out: concentration needed for 50% growth inhibition (ID50) A549, Table 2, MTT six days after drug treatment

IC50 ([4]; Homo sapiens) | IC50 [6] | IC50 [7, 12] | IC50 [9] | IC50 ([10]; Homo sapiens, DuPro) | Compound | EC50 [3] | EC50 [4, 11] | EC50 [6] | EC50 ([7]; Homo sapiens) | EC50 [8] | EC50 [9] | IC50 [8] | also measured
0.018 µM | 0.4 µM | 0.51 µM | – | 0.08 µM | CCNCCCCNCC1CC1CNCCCCNCC (centres unmarked) [SL-11098] | – | – | – | – | – | – | 0.1 µM | –
0.014 µM | 1 µM | – | 26.3 µM | – | CCNCCCCNCC1CCC1CNCCCCNCC (centres unmarked) [SL-11099] | 2.5 µM | 0.014 µM | 1 µM | 0.51 µM | 0.11 µM | 26.3 µM | 0.11 µM | IC50 [7, 13]: 0.65 µM
0.027 µM | 0.73 µM | 12.4 µM | > 31.2 µM | 0.15 µM | CCNCCCCNC/C=C\CNCCCCNCC [SL-11102] | > 31.2 µM | 0.03 µM | 0.73 µM | 0.15 µM | 0.15 µM | > 31.2 µM | 0.15 µM | EC50 ([10]; Homo sapiens, DuPro): 0.15 µM
0.08 µM | 0.97 µM | – | – | 0.44 µM | CCNC/C=C\CNC/C=C\CNCCCCNCC [SL-11119] | > 31.2 µM | 0.08 µM | 0.97 µM | – | – | – | – | EC50 ([10]; Homo sapiens, DuPro): 0.44 µM

Continued, compound first:

Compound | IC50 ([4]; Homo sapiens) | IC50 [6] | IC50 [7, 12] | IC50 [9] | IC50 ([10]; Homo sapiens, DuPro) | EC50 [3] | EC50 [4, 11] | EC50 [6] | EC50 ([7]; Homo sapiens) | EC50 [8] | EC50 [9] | IC50 [8] | also measured
CCCCN/C=C1\C=C(O)C(=O)c2ccccc21 [SL-11089] | – | – | – | – | – | – | – | – | – | – | – | – | IC50 [1]: 11 µM; IC50 [2]: > 31.2 µM
CCNCCCCNCC1CC1CNCCCCNCC (centres unmarked) [SL-11093] | – | – | – | – | – | 1.6 µM | 0.016 µM | 0.4 µM | 0.26 µM | 0.07 µM | – | – | EC50 ([5]; Homo sapiens, LNCaP): 0.21 µM
CCNCCCNCc1ccccc1CNCCCNCC [SL-11094] | 12.6 µM | 28.8 µM | > 31.2 µM | > 31.2 µM | – | > 31.2 µM | 15.4 µM | 28.8 µM | > 31.2 µM | > 31.2 µM | > 31.2 µM | > 31.2 µM | –
CCCCN(CC1=CC(=O)C(=O)c2ccccc21)C(=O)CCC(=O)N1CCOCC1 [SL-11096] | – | – | – | – | – | – | – | – | – | – | – | – | IC50 [1]: 3.6 µM; IC50 [2]: 3.8 µM
CCNCCCCNCC1CCC1CNCCCCNCC (centres unmarked) [SL-11100] | – | – | – | – | – | – | – | – | – | – | – | – | IC50 [7, 13]: 2.2 µM
CCNCCCCNCc1ccccc1CNCCCCNCC [SL-11104] | 9.4 µM | 25.8 µM | 0.43 µM | > 31.2 µM | – | > 31.2 µM | 9.4 µM | 25.8 µM | > 31.2 µM | 14.7 µM | > 31.2 µM | 14.7 µM | –
CCNCCCNCC1CCCC1NCCCNCC (centres unmarked) [SL-11105] | 1.6 µM | 25.2 µM | > 31.2 µM | > 31.2 µM | > 31.2 µM | > 31.2 µM | 1.6 µM | 25.2 µM | 0.43 µM | 25.9 µM | > 31.2 µM | 25.9 µM | IC50 ([3]; 144 h, read-out: concentration needed for 50% growth inhibition (ID50) PC-3, Table 2, MTT six days after drug treatment): > 31.2 µM; EC50 ([10]; Homo sapiens, DuPro): 0.43 µM
CCNCCCCNCCCCNCCCCNCCCCNC/C=C\CNCCCCNCCCCNCCCCNCCCCNCC [SL-11150] | – | – | – | – | – | – | – | – | – | – | – | – | EC50 ([4]; survival of cultured DU145 cells): 0.11 µM; EC50 [10]: 0.48 µM; EC50 [5]: 0.23 µM
